Assay: xn = mol fraction of the nth substance listed

CCOS(=O)(=O)[O-].CC[n+]1ccn(C)c1 + CS(C)=O
101 kPa, x1 = 0.3333
Conditions	viscosity [mPa·s]
288.15 K	3.92
293.15 K	3.53
313.15 K	2.26
348.15 K	1.27

CCOCCO + CCCC[n+]1ccn(C)c1.[Br-]
100 kPa, x2 = 0
Conditions	viscosity [mPa·s]
298.15 K	1.81
303.15 K	1.61
308.15 K	1.45
313.15 K	1.33

CCCC[N+](CCCC)(CCCC)CCCC.O=S(=O)([O-])O + O=C1O[C@H]([C@@H](O)CO)C(O)=C1O + O
viscosity [mPa·s], 101 kPa
Conditions	298.15 K	308.15 K	318.15 K
x2 = 0.0003644, x1 = 0.0003601	0.908	0.734	0.61
x2 = 0.0003645, x1 = 9.006e-05	0.901	0.726	0.603
x2 = 0.000365, x1 = 0.0001801	0.903	0.729	0.605
x2 = 0.0003656, x1 = 0.0002701	0.906	0.731	0.607
x2 = 0.0006576, x1 = 0.0001801	0.91	0.734	0.608
x2 = 0.0006584, x1 = 9.003e-05	0.908	0.732	0.606
x2 = 0.0006587, x1 = 0.00027	0.912	0.737	0.611
x2 = 0.0006597, x1 = 0.00036	0.915	0.739	0.614
x2 = 0.0009539, x1 = 9.001e-05	0.913	0.737	0.611
x2 = 0.0009554, x1 = 0.00018	0.917	0.74	0.612
x2 = 0.0009567, x1 = 0.0003599	0.921	0.745	0.619
x2 = 0.0009569, x1 = 0.00027	0.919	0.742	0.617
x2 = 0.001253, x1 = 8.998e-05	0.92	0.743	0.615
x2 = 0.001255, x1 = 0.0001799	0.922	0.745	0.616
x2 = 0.001255, x1 = 0.0002699	0.924	0.748	0.621
x2 = 0.001257, x1 = 0.0003598	0.928	0.751	0.624
x2 = 0.001553, x1 = 8.995e-05	0.925	0.747	0.62
x2 = 0.001556, x1 = 0.0001799	0.929	0.75	0.622
x2 = 0.001558, x1 = 0.0002698	0.931	0.754	0.626
x2 = 0.001561, x1 = 0.0003597	0.934	0.757	0.629
x2 = 0.001859, x1 = 8.992e-05	0.931	0.751	0.625
x2 = 0.00186, x1 = 0.0001798	0.934	0.755	0.627
x2 = 0.001863, x1 = 0.0002697	0.938	0.758	0.631
x2 = 0.001866, x1 = 0.0003596	0.94	0.762	0.634

Reference: the CheMixHub ionic liquid set
